From BindingDB's records for doi:10.1021/acschembio.7b00653 (University of Konstanz, 2017) come the findings set out here.

In the experiment the target is T1, AP-4-A phosphorylase (Mycobacterium tuberculosis (strain ATCC 25618 / H37Rv), UniProt P9WMK9).
T1 sequence (P9WMK9 whole entry): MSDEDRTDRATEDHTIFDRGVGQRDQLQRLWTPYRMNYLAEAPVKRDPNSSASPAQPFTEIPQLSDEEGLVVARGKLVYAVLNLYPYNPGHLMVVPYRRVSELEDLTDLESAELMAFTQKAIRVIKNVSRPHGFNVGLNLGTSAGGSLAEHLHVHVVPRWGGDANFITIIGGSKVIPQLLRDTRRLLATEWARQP
Nature of the experiment: FRET assay. Conditions: pH 8. Here is the method: Dose response curves against Rv2613c with 1 as the substrate for derivatives 5 and 18. 8 nM of Rv2613c were preincubated in buffer (20 mM Tris-HCl (pH 8.0), 50 mM NaCl, 1 mM DTT, 0.2 mg/mL BSA, 5 mM NaH2PO4, 5 mM MgCl2) with indicated amounts of compound solved in DMSO at 25°C for 30 min. Substrate 1 (2 µM in Tris-HCl buffer pH 8.0) was added Measurement of the fluorescence at 570 nm was conducted every 3 min over 1 h. Turnover of probe 1 was calculated by normalization to the intensity of controls. The rate of probe 1 turnover was obtained by linear fitting of probe 1 turnover over time. % Inhibition was calculated relative to the controls. The IC50 was calculated by a non-linear curve fit/dose response curve in Origin.
A word on the IC50: it is the concentration that gives 50% inhibition. Higher therefore signals lower potency. `CS/C(Nc1cccc(C(F)(F)F)c1)=C(/C#N)S(=O)(=O)c1ccc(Cl)cc1` [Synthesized Sulfanylacrylonitril Derivatives 2]: the IC50 was determined as 260 nM.
The result for `CCCS/C(Nc1cccc(C(F)(F)F)c1)=C(/C#N)S(=O)(=O)c1ccccc1` [Synthesized Sulfanylacrylonitril Derivatives 10] reads 470 nM; that for `CS/C(Nc1ccccc1)=C(/C#N)S(=O)(=O)c1ccc(Cl)cc1` [Synthesized Sulfanylacrylonitril Derivatives 4], more than 100000 nM.
The result for `CS/C(Nc1cccc(C(F)(F)F)c1)=C(/C#N)S(=O)(=O)c1ccccc1` [Synthesized Sulfanylacrylonitril Derivatives 5] reads 120 nM; that for `CCc1cccc(N/C(SC)=C(\C#N)S(=O)(=O)c2ccccc2)c1` [Synthesized Sulfanylacrylonitril Derivatives 18], 570 nM.
For `CS/C(Nc1ccccc1C(F)(F)F)=C(/C#N)S(=O)(=O)c1ccccc1` [Synthesized Sulfanylacrylonitril Derivatives 6], the IC50 is more than 100000 nM.
In the case of `CS/C(Nc1cccc([N+](=O)[O-])c1)=C(/C#N)S(=O)(=O)c1ccccc1` [Synthesized Sulfanylacrylonitril Derivatives 15], half-maximal inhibition (IC50) was put at 1300 nM.
The result for `CS/C(Nc1cc(C(F)(F)F)cc(C(F)(F)F)c1)=C(/C#N)S(=O)(=O)c1ccccc1` [Synthesized Sulfanylacrylonitril Derivatives 8] reads more than 100000 nM; that for `CS/C(Nc1ccc(C(F)(F)F)cc1)=C(/C#N)S(=O)(=O)c1ccccc1` [Synthesized Sulfanylacrylonitril Derivatives 7], 16300 nM.
As for `CC(C)S/C(Nc1cccc(C(F)(F)F)c1)=C(/C#N)S(=O)(=O)c1ccccc1` [Synthesized Sulfanylacrylonitril Derivatives 11], inhibition was half-maximal at 940 nM (IC50).
Turning to `CS/C(Nc1cc(C)cc(C)c1)=C(/C#N)S(=O)(=O)c1ccccc1` [Synthesized Sulfanylacrylonitril Derivatives 22], the IC50 is more than 100000 nM.
On to `CS/C(Nc1cccc(C(C)C)c1)=C(/C#N)S(=O)(=O)c1ccccc1` [Synthesized Sulfanylacrylonitril Derivatives 20], for which 1770 nM corresponded to half-maximal inhibition (IC50). This lies in the single-digit micromolar range.
The same measure for `COC(=O)c1cccc(N/C(SC)=C(\C#N)S(=O)(=O)c2ccccc2)c1` [Synthesized Sulfanylacrylonitril Derivatives 17]: 21800 nM; for `N#C/C(=C(\Nc1cccc(C(F)(F)F)c1)SCc1ccccc1)S(=O)(=O)c1ccccc1` [Synthesized Sulfanylacrylonitril Derivatives 12]: 800 nM.
On to `COc1cccc(N/C(SC)=C(\C#N)S(=O)(=O)c2ccccc2)c1` [Synthesized Sulfanylacrylonitril Derivatives 21], for which the IC50 was determined as 11300 nM.
The result for `CS/C(Nc1cccc(C#N)c1)=C(/C#N)S(=O)(=O)c1ccccc1` [Synthesized Sulfanylacrylonitril Derivatives 16] reads 2510 nM; that for `CS/C(Nc1ccccc1)=C(/C#N)S(=O)(=O)c1ccccc1` [Synthesized Sulfanylacrylonitril Derivatives 3], more than 30000 nM.
In turn, `CCCc1cccc(N/C(SC)=C(\C#N)S(=O)(=O)c2ccccc2)c1` [Synthesized Sulfanylacrylonitril Derivatives 19] yielded an IC50 of 960 nM.
The molecule `CS/C(Nc1cccc(C)c1)=C(/C#N)S(=O)(=O)c1ccccc1` [Synthesized Sulfanylacrylonitril Derivatives 14] yielded an IC50 of 4620 nM.
